Legend:
[1] = molecular target: Replicase polyprotein 1ab (Severe acute respiratory syndrome coronavirus 2) (UniProt P0DTD1); assay: Inhibition of SARS-Cov-2 RdRp expressed in HEK293T cells co-transfected with pCoV-Gluc and pCOVID-nsp12/7/8 at 10 uM incubated for 24 hrs by microplate luminometric analysis relative to control; assay type: cell-based
[2] = molecular target: T1, Replicase polyprotein 1ab (Severe acute respiratory syndrome coronavirus 2, UniProt P0DTD1); assay: Inhibition of SARS-Cov-2 RdRp expressed in HEK293T cells co-transfected with pCoV-Gluc and pCOVID-nsp12/7/8 incubated for 24 hrs by microplate luminometric analysis; assay type: cell-based
[3] = Cytotoxicity against HEK293T cells assessed as reduction in cell viability incubated for 24 hrs by CCK-8 assay; assay type: toxicity, cell-based, HEK-293T; details: human
[4] = molecular target: Replicase polyprotein 1ab (Severe acute respiratory syndrome coronavirus 2) (UniProt P0DTD1); assay: Inhibition of SARS-Cov-2 RdRp expressed in HEK293T cells co-transfected with pCoV-Gluc and pCOVID-nsp12/7/8 assessed as reduction in viral positive strand Gluc-RNA level incubated for 24 hrs by qRT-PCR analysis; assay type: cell-based
[5] = molecular target: Replicase polyprotein 1ab (Severe acute respiratory syndrome coronavirus 2) (UniProt P0DTD1); assay: Inhibition of SARS-Cov-2 RdRp expressed in HEK293T cells co-transfected with pCoV-Gluc and pCOVID-nsp12/7/8 assessed as reduction in viral negative strand Gluc-RNA level incubated for 24 hrs by qRT-PCR analysis; assay type: cell-based
[6] = molecular target: T1, Replicase polyprotein 1ab; assay: Inhibition of SARS-Cov-2 RdRp expressed in HEK293T cells co-transfected with pCoV-Gluc and pCOVID-nsp12/7/8/10/14 assessed as tolerance to proof reading activity of nsp14/10 exonuclease incubated for 24 hrs by microplate luminometric analysis; assay type: cell-based
[7] = molecular target: Replicase polyprotein 1ab (Severe acute respiratory syndrome coronavirus 2) (UniProt P0DTD1); assay: Inhibition of SARS-Cov-2 RdRp expressed in HEK293T cells co-transfected with pCoV-Gluc and pCOVID-nsp12/7/8 at 3 uM incubated for 24 hrs by microplate luminometric analysis; assay type: cell-based
Human coronavirus OC43 [8] = assay: Antiviral activity against HCoV OC43 infected in human HCT-8 cells assessed as inhibition of viral replication pre-infected for 1 hrs followed by compound administration and measured 120 hrs post-infection by MTS assay; assay type: functional, organism-based; details: for EC50: Betacoronavirus 1, HCT-8; for Activity: time 119.0 hrs
Human coronavirus NL63 [9] = assay: Antiviral activity against HCoV NL63 infected in rhesus monkey LLC-MK2 cells assessed as inhibition of viral replication pre-infected for 1 hrs followed by compound administration and measured 120 hrs post-infection by MTS assay; assay type: functional, organism-based; details: for Activity: time 119.0 hrs
Human coronavirus OC43 [10] = assay: Antiviral activity against HCoV OC43 infected in human HCT-8 cells assessed as inhibition of viral replication by measuring maximal inhibition at 50 uM pre-infected for 1 hrs followed by compound administration and measured 120 hrs post-infection by MTS assay relative to control; assay type: functional; details: time 119 hrs
Human coronavirus NL63 [11] = assay: Antiviral activity against HCoV NL63 infected in rhesus monkey LLC-MK2 cells assessed as inhibition of viral replication by measuring maximal inhibition at 50 uM pre-infected for 1 hrs followed by compound administration and measured 120 hrs post-infection by MTS assay relative to control; assay type: functional; details: time 119 hrs
[12] = molecular target: Replicase polyprotein 1ab (Severe acute respiratory syndrome coronavirus 2) (UniProt P0DTD1); assay: Inhibition of SARS-Cov-2 RdRp expressed in HEK293T cells co-transfected with pCoV-Gluc and pCOVID-nsp12/7/8 at 0.5 to 2 uM incubated for 24 hrs by microplate luminometric analysis; assay type: cell-based; details: dose 0.5-2 µM

SMILES | inhibition [1] [%] | EC50 [2] [nM] | CC50 at 24 h [3] [nM] | further results
CCOc1ccccc1NC(=O)CSc1c[nH]c2ccccc12 | 4 |  |  | 
CCOc1ccccc1NC(=O)CSc1c(SCC(=O)NCc2ccccc2C)[nH]c2ccccc12 | 77.5 | 2580 | > 100000 | 
O=C(CSc1[nH]c2ccccc2c1SCC(=O)Nc1ccc(Cl)c(Cl)c1)NCc1cccc(Cl)c1 | 85.1 | 2140 | > 100000 | 
CCOc1ccccc1CNC(=O)CSc1[nH]c2ccccc2c1SCC(=O)Nc1ccc(Cl)c(Cl)c1 | 92 | 1450 | 72500 | inhibition ([4]; dose 5-10 µM, time 24.0 hrs): Dose-dependent-effect; inhibition ([5]; dose 5-10 µM, time 24.0 hrs): Dose-dependent-effect; EC50 [6]: 1690 nM; inhibition [7]: Active; Maximum Inhibitory Effect Observed
Cc1ccc(CNC(=O)CSc2[nH]c3ccccc3c2SCC(=O)Nc2ccc(Cl)c(Cl)c2)cc1 | 91.9 | 1600 | > 100000 | 
CCOc1ccccc1NC(=O)CSc1c(SCC(=O)NCc2ccccc2OC)[nH]c2ccccc12 | 73.8 | 2360 | > 100000 | 
CCOc1ccccc1NC(=O)CSc1c(SCC(=O)NCc2ccccc2Cl)[nH]c2ccccc12 | 80.8 | 2550 | > 100000 | 
COc1ccccc1CNC(=O)CSc1[nH]c2ccccc2c1SCC(=O)Nc1ccc(Cl)c(Cl)c1 | 95.5 | 2000 | > 100000 | 
O=C(CSc1[nH]c2ccccc2c1SCC(=O)Nc1ccc(Cl)c(Cl)c1)NCc1ccc(Cl)c(Cl)c1 | 89.1 | 2020 | > 100000 | 
CCOc1ccccc1NC(=O)CSc1c(SCC(=O)NCc2ccc(Cl)cc2)[nH]c2ccccc12 | 95.4 | 1770 | > 100000 | 
CCOc1ccccc1NC(=O)CSc1[nH]c2ccccc2c1SCC(=O)Nc1ccccc1OCC | 48.5 |  |  | 
O=C(CSc1[nH]c2ccccc2c1SCC(=O)Nc1ccc(Cl)c(Cl)c1)NCc1ccccc1F | 93.6 | 1440 | 78600 | inhibition [4]: Dose-dependent-effect; Inhibition Effect Were Twice As Potent As Remdesivir At 10 Um; inhibition [5]: Dose-dependent-effect; Inhibition Effect Were Twice As Potent As Remdesivir At 10 Um; EC50 [6]: 1800 nM; inhibition [7]: Active; Maximum Inhibitory Effect Observed
CCOc1ccccc1NC(=O)CSc1c(SCC(=O)NCc2cccc(C)c2)[nH]c2ccccc12 | 40.2 |  |  | 
O=C(CSc1[nH]c2ccccc2c1SCC(=O)Nc1ccc(Cl)c(Cl)c1)NCc1ccc(-c2ccccc2)cc1 | 93.8 | 1910 | 75100 | 
Cc1cccc(CNC(=O)CSc2[nH]c3ccccc3c2SCC(=O)Nc2ccc(Cl)c(Cl)c2)c1 | 96 | 1550 | 90300 | inhibition [4]: Dose-dependent-effect; Inhibition Effect Were Twice As Potent As Remdesivir At 10 Um; inhibition [5]: Dose-dependent-effect; Inhibition Effect Were Twice As Potent As Remdesivir At 10 Um; EC50 [6]: 1750 nM; inhibition [7]: Active; Maximum Inhibitory Effect Observed
CCOc1ccccc1NC(=O)CSc1c(SCC(=O)NCc2ccccc2F)[nH]c2ccccc12 | 89.5 | 710 | > 100000 | inhibition ([4]; dose 5-10 µM, time 24.0 hrs): Dose-dependent-effect; inhibition ([5]; dose 5-10 µM, time 24.0 hrs): Dose-dependent-effect; EC50 [6]: 1070 nM; EC50 (Human coronavirus OC43 [8]): 1520 nM; Activity (Human coronavirus OC43 [8]): Dose-dependent-effect; EC50 (Human coronavirus NL63 [9]): 13400 nM; Activity (Human coronavirus NL63 [9]): Dose-dependent-effect; Imax (Human coronavirus OC43 [10]): 90%; Imax (Human coronavirus NL63 [11]): 80%; inhibition [12]: Active; Better Inhibitory Effect Than Remdesivir Observed
CCC(CC)COC(=O)[C@H](C)N[P@](=O)(OC[C@H]1O[C@@](C#N)(c2ccc3c(N)ncnn23)[C@H](O)[C@@H]1O)Oc1ccccc1 | 87 |  | > 100000 | inhibition ([4]; dose 5-10 µM, time 24.0 hrs): Dose-dependent-effect; inhibition ([5]; dose 5-10 µM, time 24.0 hrs): Dose-dependent-effect; EC50 (Human coronavirus OC43 [8]): 1790 nM; EC50 (Human coronavirus NL63 [9]): 3420 nM
CCOc1ccccc1NC(=O)CSc1c(SCC(=O)NCc2ccc(-c3ccccc3)cc2)[nH]c2ccccc12 | 39.7 |  |  | 
CCOc1ccccc1NC(=O)CSc1c(SCC(=O)NCc2ccccc2)[nH]c2ccccc12 | 89.2 | 2140 | > 100000 | 
CCOc1ccccc1NC(=O)CSc1c(SCC(=O)NCc2ccc(C)cc2)[nH]c2ccccc12 | 88.3 | 2760 | > 100000 | 
Cc1ccccc1CNC(=O)CSc1[nH]c2ccccc2c1SCC(=O)Nc1ccc(Cl)c(Cl)c1 | 94.4 | 2440 | > 100000 | 
CCOc1ccccc1NC(=O)CSc1c(SCC(=O)NCc2ccc(Cl)c(Cl)c2)[nH]c2ccccc12 | 84.8 | 2590 | > 100000 | 
O=C(CSc1[nH]c2ccccc2c1SCC(=O)Nc1ccc(Cl)c(Cl)c1)NCc1ccccc1 | 97 | 3130 | 87100 | 
O=C(CSc1[nH]c2ccccc2c1SCC(=O)Nc1ccc(Cl)c(Cl)c1)Nc1ccc(Cl)c(Cl)c1 | 88.1 | 2430 | 95500 | 
O=C(CSc1[nH]c2ccccc2c1SCC(=O)Nc1ccc(Cl)c(Cl)c1)NCc1ccc(Cl)cc1 | 96.6 | 1880 | > 100000 | 
CCOc1ccccc1NC(=O)CSc1c(SCC(=O)NCc2cccc(Cl)c2)[nH]c2ccccc12 | 94.8 | 570 | > 100000 | inhibition ([4]; dose 5-10 µM, time 24.0 hrs): Dose-dependent-effect; inhibition ([5]; dose 5-10 µM, time 24.0 hrs): Dose-dependent-effect; EC50 [6]: 850 nM; EC50 (Human coronavirus OC43 [8]): 1280 nM; Activity (Human coronavirus OC43 [8]): Dose-dependent-effect; EC50 (Human coronavirus NL63 [9]): 4110 nM; Activity (Human coronavirus NL63 [9]): Dose-dependent-effect; Imax (Human coronavirus OC43 [10]): 90%; Imax (Human coronavirus NL63 [11]): 80%; inhibition [12]: Active; Better Inhibitory Effect Than Remdesivir Observed
O=C(CSc1[nH]c2ccccc2c1SCC(=O)Nc1ccc(Cl)c(Cl)c1)NCc1ccccc1Cl | 82 | 2330 | > 100000 | 
O=C(CSc1c[nH]c2ccccc12)Nc1ccc(Cl)c(Cl)c1 | 36 |  |  | 
CCOc1ccccc1CNC(=O)CSc1[nH]c2ccccc2c1SCC(=O)Nc1ccccc1OCC | 39.2 |  |  | 

Reference: ChEMBL document CHEMBL6182860, “Discovery and rational optimization of 2, 2'-((1H-indole-2,3-diyl) bis (thio))diacetamide as novel SARS-CoV-2 RdRp inhibitors” (Bioorg Med Chem, 2025)
